Data as given in patent EP2987533B1, “7-substituted piperazin-1-yl fluoroquinolone compounds, their use in the treatment of cancer, pharmaceutical compositions and a method for preparation” (priority 2014, dated 2016).

Key:
Test in all cases: NCI five-dose SRB growth assay
Type in all cases: cell-based
M14 = conditions: Homo sapiens; M14 (Melanoma), 48 h
HCT-15 = conditions: Homo sapiens; HCT-15 (Colon Cancer), 48 h
NCI-H23 = conditions: Homo sapiens; NCI-H23 (Non-Small Cell Lung Cancer), 48 h
NCI-H460 = conditions: Homo sapiens; NCI-H460 (Non-Small Cell Lung Cancer), 48 h
UO-31 = conditions: Homo sapiens; UO-31 (Renal Cancer), 48 h
NCI-H226 = conditions: Homo sapiens; NCI-H226 (Non-Small Cell Lung Cancer), 48 h
CCRF-CEM = conditions: Homo sapiens; CCRF-CEM (Leukemia), 48 h
SK-OV-3 = conditions: Homo sapiens; SK-OV-3 (Ovarian Cancer), 48 h
SK-MEL-5 = conditions: Homo sapiens; SK-MEL-5 (Melanoma), 48 h
SF-539 = conditions: Homo sapiens; SF-539 (CNS Cancer), 48 h
COLO 205 = conditions: Homo sapiens; COLO 205 (Colon Cancer), 48 h
BT-549 = conditions: Homo sapiens; BT-549 (Breast Cancer), 48 h
U251 = conditions: Homo sapiens, U-251; U251 (CNS Cancer), 48 h
HL-60(TB) = conditions: Homo sapiens; HL-60(TB) (Leukemia), 48 h
MDA-MB-435 = conditions: Homo sapiens; MDA-MB-435 (Melanoma), 48 h
PC-3 = conditions: Homo sapiens; PC-3 (Prostate Cancer), 48 h
786-0 = conditions: Homo sapiens; 786-0 (Renal Cancer), 48 h
NCI-H522 = conditions: Homo sapiens; NCI-H522 (Non-Small Cell Lung Cancer), 48 h
SW-620 = conditions: Homo sapiens; SW-620 (Colon Cancer), 48 h
HOP-92 = conditions: Homo sapiens; HOP-92 (Non-Small Cell Lung Cancer), 48 h
RXF 393 = conditions: Homo sapiens; RXF 393 (Renal Cancer), 48 h
OVCAR-5 = conditions: Homo sapiens; OVCAR-5 (Ovarian Cancer), 48 h
A549/ATCC = conditions: Homo sapiens; A549/ATCC (Non-Small Cell Lung Cancer), 48 h
HT29 = conditions: Homo sapiens, HT-29; HT29 (Colon Cancer), 48 h
KM12 = conditions: Homo sapiens; KM12 (Colon Cancer), 48 h
SNB-19 = conditions: Homo sapiens; SNB-19 (CNS Cancer), 48 h
UACC-62 = conditions: Homo sapiens; UACC-62 (Melanoma), 48 h
IGROV1 = conditions: Homo sapiens, IGROV-1; IGROV1 (Ovarian Cancer), 48 h
CAKI-1 = conditions: Homo sapiens; CAKI-1 (Renal Cancer), 48 h
MDA-MB-468 = conditions: Homo sapiens; MDA-MB-468 (Breast Cancer), 48 h
ACHN = conditions: Homo sapiens; ACHN (Renal Cancer), 48 h
MALME-3M = conditions: Homo sapiens; MALME-3M (Melanoma), 48 h
OVCAR-8 = conditions: Homo sapiens; OVCAR-8 (Ovarian Cancer), 48 h
MCF7 = conditions: Homo sapiens; MCF7 (Breast Cancer), 48 h
SK-MEL-2 = conditions: Homo sapiens; SK-MEL-2 (Melanoma), 48 h
SK-MEL-28 = conditions: Homo sapiens; SK-MEL-28 (Melanoma), 48 h
DU-145 = conditions: Homo sapiens; DU-145 (Prostate Cancer), 48 h
OVCAR-3 = conditions: Homo sapiens; OVCAR-3 (Ovarian Cancer), 48 h
HCC-2998 = conditions: Homo sapiens; HCC-2998 (Colon Cancer), 48 h

CCn1cc(C(=O)O)c(=O)c2cc(F)c(N3CCN(S(=O)(=O)c4ccc(Cl)cc4Cl)CC3)cc21 [Compound 2a]
GI50 (M14): 3.24 µM
GI50 (HCT-15): 2.82 µM
GI50 (NCI-H23): 2.33 µM
GI50 (NCI-H460): 3.13 µM
GI50 (UO-31): 2.2 µM
GI50 (NCI-H226): 2.6 µM
GI50 (CCRF-CEM): 3.03 µM
GI50 (SK-OV-3): 3 µM
GI50 (SK-MEL-5): 1.87 µM
GI50 (SF-539): 1.92 µM
GI50 (COLO 205): 2.44 µM
GI50 (BT-549): 2.64 µM
GI50 (U251): 3.3 µM
GI50 (HL-60(TB)): 2.22 µM
GI50 (MDA-MB-435): 1.97 µM
GI50 (PC-3): 2.43 µM
GI50 (786-0): 3.19 µM
GI50 (NCI-H522): 1.81 µM
GI50 (SW-620): 3.91 µM
GI50 (HOP-92): 1.22 µM
GI50 (RXF 393): 2.08 µM
GI50 (OVCAR-5): 3.43 µM
GI50 (A549/ATCC): 2.89 µM
GI50 (HT29): 3.63 µM
GI50 (KM12): 3.42 µM
GI50 (SNB-19): 3.07 µM
GI50 (UACC-62): 1.61 µM
GI50 (IGROV1): 2.33 µM
GI50 (CAKI-1): 2.01 µM
GI50 (MDA-MB-468): 1.98 µM
GI50 (ACHN): 2.62 µM
GI50 (MALME-3M): 1.95 µM
GI50 (OVCAR-8): 3.3 µM
GI50 (MCF7): 2.95 µM
GI50 (SK-MEL-2): 2.75 µM
GI50 (SK-MEL-28): 3.21 µM
GI50 (DU-145): 2.81 µM
GI50 (OVCAR-3): 2.54 µM
GI50 (HCC-2998): 2.29 µM
